Test results reported in US9040498B2, “1,2,3-Triazolyl purine derivatives” (RESEARCH FOUNDATION OF THE CITY UNIVERSITY OF NEW YORK, priority 2012, dated 2015).
Read-outs that look alike come from different tables or passages of the source.

Assays:
[1] = test system: HEL cell; experiment: HEL cell effects: cell morphology (minimum cytotoxic concentration); settings: minimum cytotoxic concentration causing microscopically detectable alteration of cell morphology
[2] = test system: ovarian (1A9) cancer cell line; experiment: GI50 against ovarian cancer cell line 1A9; settings: read-out: GI50 1A9
[3] = test system: paclitaxel-resistant (PTX10) ovarian cancer cell line; experiment: GI50 against paclitaxel-resistant ovarian cancer cell line PTX10
[4] = test system: cytomegalovirus (CMV); experiment: Anti-CMV activity in HEL cells (both strains); type: cell-based; settings: for anti-CMV activity (in words): HEL cells
[5] = test system: colorectal (HCT116) cancer cell line; experiment: GI50 against colorectal cancer cell line HCT116
[6] = test system: CMV Davis strain; experiment: Anti-CMV activity in HEL cell cultures, Davis strain; type: cell-based, cytomegalovirus; settings: reduce virus plaque formation by 50%
[7] = test system: p53KO HCT116 cancer cell line; experiment: GI50 against p53KO HCT116 cancer cell line; settings: read-out: GI50 p53KO
[8] = test system: paclitaxel-resistant (PTX22) ovarian cancer cell line; experiment: GI50 against paclitaxel-resistant ovarian cancer cell line PTX22; settings: read-out: GI50 PTX22
[9] = test system: CMV AD-169 strain; experiment: Anti-CMV activity in HEL cell cultures, AD-169 strain; type: cell-based, cytomegalovirus; settings: reduce virus plaque formation by 50%
[10] = test system: HEL cell; experiment: HEL cell effects: cell growth; settings: read-out: HEL cell effects cell growth (IC50); concentration required to reduce cell growth by 50%
[11] = test system: murine leukemia L1210, human lymphocyte CEM, and HeLa cells; experiment: Cytostatic activity against L1210, CEM and HeLa cells; type: cell-based; settings: for cytostatic activity (in words): L1210, CEM, HeLa; for IC50: range over L1210 (48 h), CEM (72 h), HeLa (96 h)
Procedure: The cytostatic effects of the test compounds on murine leukemia cells (L1210), human T-lymphocyte cells (CEM) and human cervix carcinoma cells (HeLa) were evaluated as follows: an appropriate number of cells suspended in growth medium were allowed to proliferate in 200-μL-wells of 96-well-microtiter plates in the presence of variable amounts of test compounds at 37° C. in a humidified CO2-controlled atmosphere. After 48 h (L1210), 72 h (CEM) or 96 h (HeLa), the number of cells was counted in a Coulter counter. The IC50 value is defined as the concentration required to inhibit cell proliferation by 50%.

[12] = test system: vesicular stomatitis virus (VSV); type: cell-based; settings: human cervix carcinoma HeLa cell cultures; read-out: anti-vesicular stomatitis virus (VSV) activity
[13] = test system: vesicular stomatitis virus (VSV); type: cell-based; settings: human embryonic lung (HEL) fibroblast cell cultures
[14] = test system: HeLa and HEL cell cultures
[15] = read-out: GI50 PTX10, paclitaxel-resistant ovarian PTX10, four days
[16] = read-out: GI50 HCT116, colorectal HCT116, four days
[17] = HEL cell cultures, virus input 100 PFU
[18] = paclitaxel-resistant ovarian PTX22, four days

| Compound | HEL cell effects cell morphology (MDC) [1] | GI50 ([2]; ovarian 1A9, four days) | GI50 [3, 15] | GI50 [5, 16] | EC50 [6, 17] | GI50 ([7]; p53KO HCT116, four days) | GI50 [8, 18] | EC50 [9, 17] | IC50 [10] | EC50 ([6]; […]) | further results |
| --- | --- | --- | --- | --- | --- | --- | --- | --- | --- | --- | --- |
| Cc1ccc(-c2cn(-c3nc(O)c4ncn([C@@H]5O[C@H](CO)[C@@H](O)[C@H]5O)c4n3)nn2)cc1 [Compound 18, 2-[4-(4-Methylphenyl)-1,2,3-triazol-1H-yl]inosine] | >240 μM | 38 µM | > 50 µM | > 50 µM | 151 µM | > 50 µM | 13.4 µM | 118 µM | – | – | anti-CMV activity (in words) [4]: marginal activity |
| CCCCc1cn(-c2nc(O)c3ncn([C@@H]4O[C@H](CO)[C@@H](O)[C@H]4O)c3n2)nn1 [Compound 23, 2-(4-n-Butyl-1,2,3-triazol-1H-yl)inosine] | – | 37 µM | > 50 µM | > 50 µM | 39 µM | > 50 µM | 28.1 µM | 73 µM | > 250 µM | – | anti-CMV activity (in words) [4]: somewhat more pronounced; EC50 ([4]; range over the CMV strains, read-out: EC50 against CMV in HEL cells): 39 to 73 µM |
| 2-[4-(Ferrocenyl)-1,2,3-triazol-1H-yl]inosine [Compound 22] | 2190 μM | 29.7 µM | > 50 µM | > 50 µM | 123 µM | > 50 µM | 12.9 µM | 120 µM | 123 µM | – | anti-CMV activity (in words) [4]: marginal activity |
| 2-[4-(Ferrocenyl)-1,2,3-triazol-1H-yl]-2′-deoxyinosine [Compound 29] | >200 μM | 41.6 µM | > 50 µM | > 50 µM | – | > 50 µM | 18 µM | – | > 200 µM | – | – |
| COc1ccc(-c2cn(-c3nc(O)c4ncn([C@@H]5O[C@H](CO)[C@@H](O)[C@H]5O)c4n3)nn2)cc1 [Compound 19, 2-[4-(4-Methoxyphenyl)-1,2,3-triazol-1H-yl]inosine] | >230 μM | 29.5 µM | > 50 µM | > 50 µM | – | > 50 µM | 8.56 µM | – | > 230 µM | – | – |
| OCc1cn(-c2nc(O)c3ncn([C@H]4C[C@H](O)[C@@H](CO)O4)c3n2)nn1 [Compound 27, 2-[4-(Hydroxymethyl)-1,2,3-triazol-1H-yl]-2′-deoxyinosine] | >290 μM | 49.4 µM | > 50 µM | > 50 µM | – | > 50 µM | 32.9 µM | – | – | > 290 µM | EC50 ([9]; […]): > 290 µM |
| OC[C@H]1O[C@@H](n2cnc3c(O)nc(-n4cc(-c5ccccc5)nn4)nc32)[C@H](O)[C@@H]1O [Compound 17, 2-[4-(Phenyl)-1,2,3-triazol-1H-yl]inosine] | 240 μM | 22.8 µM | > 50 µM | > 50 µM | > 50 µM | > 50 µM | 4.76 µM | > 50 µM | – | – | cytostatic activity (in words) [11]: most cytostatic; IC50 [11]: 34 to 124 µM; EC50 [12]: 27 ± 2.4 µM; anti-VSV activity (in words) [13]: could not be confirmed; toxicity observed [14]: 100 to 240 µM |
| COc1ccc(-c2cn(-c3nc(O)c4ncn([C@H]5C[C@H](O)[C@@H](CO)O5)c4n3)nn2)cc1 [Compound 26, 2-[4-(4-Methoxyphenyl)-1,2,3-triazol-1H-yl]-2′-deoxyinosine] | >240 μM | 37.2 µM | > 50 µM | > 50 µM | – | > 50 µM | 15.7 µM | – | – | > 240 µM | EC50 ([9]; […]): > 240 µM |
| OC[C@H]1O[C@@H](n2cnc3c(O)nc(-n4cc(-c5ccc(F)cc5)nn4)nc32)[C@H](O)[C@@H]1O [Compound 24, 2-[4-(4-Fluorophenyl)-1,2,3-triazol-1H-yl]inosine] | >230 μM | 34 µM | > 50 µM | > 50 µM | > 230 µM | > 50 µM | 31 µM | > 230 µM | – | – | – |
| O=C1c2ccccc2C(=O)N1Cc1cn(-c2nc(O)c3ncn([C@@H]4O[C@H](CO)[C@@H](O)[C@H]4O)c3n2)nn1 [Compound 21, 2-[4-(N-Phthalimidomethyl)-1,2,3-triazol-1H-yl]inosine] | >200 μM | 6.32 µM | > 50 µM | > 50 µM | > 200 µM | > 50 µM | 14.1 µM | – | > 200 µM | – | – |
| OCc1cn(-c2nc(O)c3ncn([C@@H]4O[C@H](CO)[C@@H](O)[C@H]4O)c3n2)nn1 [Compound 20, 2-[4-(Hydroxymethyl)-1,2,3-triazol-1H-yl]inosine] | >270 μM | 20.4 µM | > 50 µM | > 50 µM | > 270 µM | 42.6 µM | 3.53 µM | > 270 µM | – | – | – |
| OC[C@H]1O[C@@H](n2cnc3c(NCc4ccccc4)nc(-n4cc(-c5ccccc5)nn4)nc32)[C@@H](O)C1O (stereo partly drawn) [Compound 35, 6-(N-Benzyl)-2-[4-(phenyl)-1,2,3-triazol-1H-yl]adenosine] | 200 μM | – | – | – | – | – | – | – | – | – | cytostatic activity (in words) [11]: poorly cytostatic; IC50 [11]: 90 to 120 µM; GI50 ([2]; 96 h): 5 µM; GI50 ([3]; PTX10, 96 h, read-out: GI50 PTX10): > 50 µM; GI50 ([5]; Homo sapiens, HCT-116, 96 h, read-out: GI50 HCT116): 43.6 µM; EC50 ([6]; Human betaherpesvirus 5, HEL cell cultures, virus input 100 PFU): > 40 µM; GI50 ([7]; Homo sapiens, HCT-116, 96 h): > 50 µM; GI50 ([8]; 96 h): 24.5 µM; EC50 ([9]; Human betaherpesvirus 5, AD169, HEL cell cultures, virus input 100 PFU): > 40 µM |
| CC(=O)O[C@H]1C(=O)[C@@]2(C)[C@H]([C@H](OC(=O)c3ccccc3)[C@]3(O)C[C@H](OC(=O)[C@H](O)[C@@H](NC(=O)c4ccccc4)c4ccccc4)C(C)=C1C3(C)C)[C@]1(OC(C)=O)CO[C@@H]1C[C@@H]2O [paclitaxel, reference compound] | – | – | – | – | – | – | – | – | – | – | GI50 [2]: 0.00151 µM; GI50 ([3]; PTX10, read-out: GI50 PTX10): 0.079 µM; GI50 ([5]; Homo sapiens, HCT-116, read-out: GI50 HCT116): 0.00685 µM; GI50 [8]: 0.068 µM |
| CCCCc1cn(-c2nc(O)c3ncn([C@H]4C[C@H](O)[C@@H](CO)O4)c3n2)nn1 [Compound 30, 2-(4-n-Butyl-1,2,3-triazol-1H-yl)-2′-deoxyinosine] | >270 μM | 46.1 µM | > 50 µM | > 50 µM | – | > 50 µM | 26.9 µM | – | – | > 270 µM | EC50 ([9]; […]): > 270 µM |
| O=C1c2ccccc2C(=O)N1Cc1cn(-c2nc(O)c3ncn([C@H]4C[C@H](O)[C@@H](CO)O4)c3n2)nn1 [Compound 28, 2-[4-(N-Phthalimidomethyl)-1,2,3-triazol-1H-yl]-2′-deoxyinosine] | >210 μM | 49.6 µM | > 50 µM | > 50 µM | – | > 50 µM | 32.2 µM | – | – | > 210 µM | EC50 ([9]; […]): > 210 µM |
| OC[C@H]1O[C@@H](n2cnc3c(O)nc(-n4cc(-c5ccccc5)nn4)nc32)C[C@@H]1O [Compound 25, 2-[4-(Phenyl)-1,2,3-triazol-1H-yl]-2′-deoxyinosine] | >250 μM | 31 µM | > 50 µM | > 50 µM | – | > 50 µM | 14.8 µM | – | 188 µM | 158 µM | anti-CMV activity (in words) [4]: marginal activity |
